pKi: −log10 of the molar value.

This assay addresses Integrin alpha-4/beta-1 [T112H] (Homo sapiens, UniProt P05556+P13612, T112H). As to the kind of experiment: Jurkat J6 Scintillation Proximity Assay. Here is the method: J6 cells (1 million cells/well) were allowed to coat wheat germ agglutinin coated SPA beads (Amersham, 1 mg/well) in assay buffer. Tritiated 3H Standard Compound A and test compounds were dissolved in an appropriate solvent and diluted in assay buffer. Data are presented as mean pKi.
On the technique in general: SPA uses beads or plates that emit light when radiolabelled molecules are held near them.
For `Cc1ccccc1NC(=O)Nc1ccc(-c2cccn(Cc3ccc([C@@H](C)CC(=O)O)cc3)c2=O)cc1OC(F)(F)F` [(3S)-3-(4-{[3-(4-{[(2-methylphenyl)carbamoyl]amino}-3-(trifluoromethoxy)phenyl)-2-oxo-1,2-dihydropyridin-1-yl]methyl}phenyl)butanoic acid], the pKi – broadly, the Ki on a negative log10 scale, so that one unit is a factor of ten – is 7.70.

Molecule `CCc1cc(-c2cccn(Cc3ccc([C@@H](C)CC(=O)O)cc3)c2=O)ccc1NC(=O)Nc1ccccc1C` [(3S)-3-(4-{[3-(3-ethyl-4-{[(2-methylphenyl)carbamoyl]amino}phenyl)-2-oxo-1,2-dihydropyridin-1-yl]methyl}phenyl)butanoic acid] showed a pKi of 7.30.

On to `CCOc1cc(-c2cccn(Cc3ccc([C@@H](C)CC(=O)O)cc3)c2=O)ccc1NC(=O)Nc1ccccc1C` [(3S)-3-(4-{[3-(3-ethoxy-4-{[(2-methylphenyl)carbamoyl]amino}phenyl)-2-oxo-1,2-dihydropyridin-1-yl]methyl}phenyl)butanoic acid], for which the pKi was 8.30. For the molecule `Cc1ccccc1NC(=O)Nc1ccc(-c2cccn(Cc3ccc([C@@H](C)CC(=O)O)cc3)c2=O)cc1C` [(3S)-3-(4-{[3-(3-methyl-4-{[(2-methylphenyl)carbamoyl]amino}phenyl)-2-oxo-1,2-dihydropyridin-1-yl]methyl}phenyl)butanoic acid], the pKi was 8.60. Take `Cc1ccccc1NC(=O)Nc1ccc(-c2cccn(Cc3ccc([C@@H](C)CC(=O)O)cc3)c2=O)c(Cl)c1` [(3S)-3-(4-{[3-(2-chloro-4-{[(2-methylphenyl)carbamoyl]amino}phenyl)-2-oxo-1,2-dihydropyridin-1-yl]methyl}phenyl)butanoic acid]: the negative-log Ki (pKi) is 7.60.

Consider `CCc1cc(-c2cccn(Cc3ccc([C@H](C)CC(=O)O)cc3)c2=O)ccc1NC(=O)Nc1ccccc1C` [(3R)-3-(4-{[3-(3-ethyl-4-{[(2-methylphenyl)carbamoyl]amino}phenyl)-2-oxo-1,2-dihydropyridin-1-yl]methyl}phenyl)butanoic acid], for which the pKi was 8.20. The molecule `Cc1ccccc1NC(=O)Nc1ccc(-c2cccn(Cc3ccc([C@H](C)CC(=O)O)cc3)c2=O)cc1OC(F)(F)F` [(3R)-3-(4-{[3-(4-{[(2-methylphenyl)carbamoyl]amino}-3-(trifluoromethoxy)phenyl)-2-oxo-1,2-dihydropyridin-1-yl]methyl}phenyl)butanoic acid] showed a pKi of 8.40. Take `Cc1ccccc1NC(=O)Nc1ccc(-c2cccn(Cc3ccc([C@@H](C)CC(=O)O)cc3)c2=O)c(C)c1` [(3S)-3-(4-{[3-(2-methyl-4-{[(2-methylphenyl)carbamoyl]amino}phenyl)-2-oxo-1,2-dihydropyridin-1-yl]methyl}phenyl)butanoic acid]: the pKi is 7.70. `Cc1ccccc1NC(=O)Nc1ccc(-c2cccn(Cc3ccc([C@H](C)CC(=O)O)cc3)c2=O)cc1C` [(3R)-3-(4-{[3-(3-methyl-4-{[(2-methylphenyl)carbamoyl]amino}phenyl)-2-oxo-1,2-dihydropyridin-1-yl]methyl}phenyl)butanoic acid] showed a pKi of 9.00. For `Cc1ccccc1NC(=O)Nc1ccc(-c2cccn(Cc3ccc([C@H](C)CC(=O)O)cc3)c2=O)cc1Cl` [(3R)-3-(4-{[3-(3-chloro-4-{[(2-methylphenyl)carbamoyl]amino}phenyl)-2-oxo-1,2-dihydropyridin-1-yl]methyl}phenyl)butanoic acid], the pKi was 9.00. `Cc1ccccc1NC(=O)Nc1ccc(-c2cccn(Cc3ccc([C@@H](C)CC(=O)O)cc3)c2=O)cc1Cl` [(3S)-3-(4-{[3-(3-chloro-4-{[(2-methylphenyl)carbamoyl]amino}phenyl)-2-oxo-1,2-dihydropyridin-1-yl]methyl}phenyl)butanoic acid] showed a pKi of 8.70.

For the molecule `Cc1ccccc1NC(=O)Nc1ccc(-c2cccn(Cc3ccc([C@H](C)CC(=O)O)cc3)c2=O)c(C)c1` [(3R)-3-(4-{[3-(2-methyl-4-{[(2-methylphenyl)carbamoyl]amino}phenyl)-2-oxo-1,2-dihydropyridin-1-yl]methyl}phenyl)butanoic acid], the pKi was 8.60.

For the molecule `Cc1ccccc1NC(=O)Nc1ccc(-c2cccn(Cc3ccc([C@H](C)CC(=O)O)cc3)c2=O)c(Cl)c1` [(3R)-3-(4-{[3-(2-chloro-4-{[(2-methylphenyl)carbamoyl]amino}phenyl)-2-oxo-1,2-dihydropyridin-1-yl]methyl}phenyl)butanoic acid], the pKi was 9.10. Consider `CCOc1cc(-c2cccn(Cc3ccc([C@H](C)CC(=O)O)cc3)c2=O)ccc1NC(=O)Nc1ccccc1C` [(3R)-3-(4-{[3-(3-ethoxy-4-{[(2-methylphenyl)carbamoyl]amino}phenyl)-2-oxo-1,2-dihydropyridin-1-yl]methyl}phenyl)butanoic acid], for which the pKi was 8.70.
